The values below come from US12384800B2, “Antitumoral compounds” (priority 2017, dated 2025).

What all share (test): cells
In data set [1] the test system is MDA-MB-231 cells (breast adenocarcinoma). The settings on record: MDA-MB-231, SRB; for GI50: 72 hours treatment; for TGI: total cell growth inhibition; for TGI / CC50: 72 hours; for CC50: read-out: LC50, 50% net cell killing. From the text:
(§1) The aim of this assay is to evaluate the in vitro cytostatic (ability to delay or arrest tumor cell growth) or cytotoxic (ability to kill tumor cells) activity of the samples being tested.
(§2) A colorimetric assay, using sulforhodamine B (SRB) reaction has been adapted to provide a quantitative measurement of cell growth and viability (following the technique described by Skehan et al. J. Natl. Cancer Inst. 1990, 82, 1107-1112). Another colorimetric assay based on 3-(4,5-Dimethylthiazol-2-yl)-2,5-diphenyltetrazolium bromide (MTT) reduction to a purple formazan has been also used to assess the antiproliferative activity (following the technique described by Mosmann et al. J. Immunol. Meth. 1983, 65, 55-63).
(§3) These forms of assays employ 96-well cell culture microplates following the standards of the American National Standards Institute and the Society for Laboratory Automation and Screening (ANSI SLAS 1-2004 (R2012) Oct. 12, 2011. All the cell lines used in this study were obtained from the American Type Culture Collection (ATCC) and derive from different types of human cancer.
(§4) A549, HT29, MDA-MB-231 and PSN1 cells were maintained in Dulbecco's Modified Eagle Medium (DMEM) while PC-3 and 22Rv1 cells were maintained in Roswell Park Memorial Institute Medium (RPMI). All cell lines were supplemented with 10% Fetal Bovine Serum (FBS), 2 mM L-glutamine, 100 U/mL penicillin, and 100 […] at 37° C., 5% CO2 and 98% humidity. For the experiments, cells were harvested from subconfluent cultures using trypsinization and resuspended in fresh medium before counting and plating.
(§5) A549, HT29, MDA-MB-231 and PSN1 cells were seeded in 96 well microtiter plates, at 5000 cells per well in aliquots of 150 μL, and allowed to attach to the plate surface for 18 hours (overnight) in drug free medium. After that, one control (untreated) plate of each cell line was fixed (as described below) and used for time zero reference value. Culture plates were then treated with test compounds (50 μL aliquots of 4× stock solutions in complete culture medium plus 4% DMSO) using ten ⅖ serial dilutions (concentrations ranging from 10 to 0.003 μg/mL) and triplicate cultures (1% final concentration in DMSO). After 72 hours treatment, the antitumor effect was measured by using the SRB methodology: Briefly, cells were washed twice with PBS, fixed for 15 min in 1% glutaraldehyde solution at room temperature, rinsed twice in PBS, and stained in 0.4% SRB solution for 30 min at room temperature. Cells were then rinsed several times with 1% acetic acid solution and air-dried at room temperature.
(§6) Effects on cell growth and survival were estimated by applying the NCI algorithm (Boyd M R and Paull K D. Drug Dev. Res. 1995, 34, 91-104). The values obtained in triplicate cultures were fitted by nonlinear regression to a four-parameters logistic curve by nonlinear regression analysis.

The subject of data set [2] is A549 cells (lung carcinoma, NSCLC). As to conditions: A549, SRB; for GI50: 72 hours treatment; for TGI: total cell growth inhibition; for TGI / CC50: 72 hours; for CC50: read-out: LC50, 50% net cell killing.
Excerpt: as §1, §2, §3, §4, §5, §6

In data set [3] the test system is PSN1 cells (pancreas adenocarcinoma). As to conditions: PSN1, SRB; for GI50: 72 hours treatment; for TGI: total cell growth inhibition; for TGI / CC50: 72 hours; for CC50: read-out: LC50, 50% net cell killing.
Excerpt: as §1, §2, §3, §4, §5, §6

Data set [4] has as its system HT29 cells (colorectal adenocarcinoma). As to conditions: HT29, SRB; for GI50: 72 hours treatment; for TGI: total cell growth inhibition; for TGI / CC50: 72 hours; for CC50: read-out: LC50, 50% net cell killing.
Excerpt: as §1, §2, §3, §4, §5, §6

By GI50 is commonly meant the concentration at which growth is held to half of that of the control. Lower therefore signals more potent growth inhibition.

A value given as a limit tells only on which side of the number the result lay.

For the molecule `COc1ccc2oc3c(c2c1)CCN[C@]31CS[C@@H]2c3c(OC(C)=O)c(C)c4c(c3[C@H](COC1=O)N1[C@@H]2[C@H]2c3c(cc(C)c(OC)c3O)C[C@@H]([C@@H]1C#N)N2C)OCO4` [Compound 34], the 50% growth inhibitory concentration (GI50) is 0.0453 µM in data set [1], 0.0591 µM in data set [2], 0.0541 µM in data set [3] and 0.0541 µM in data set [4]. For the same molecule, the TGI is given as 7.67E−08 Molar in data set [1], 8.05E−08 Molar in data set [2], 5.91E−08 Molar in data set [3] and 8.55E−08 Molar in data set [4]. Besides, the CC50 in data set [1] was 0.112 µM; in data set [2] it was more than 0.126 µM; in data set [3] it was more than 0.126 µM; in data set [4] it was 0.125 µM.

With `COc1c(C)cc2c(c1O)[C@@H]1[C@@H]3[C@@H]4SC[C@]5(N[C@@H](CO)Cc6c5[nH]c5ccccc65)C(=O)OC[C@@H](c5c6c(c(C)c(OC(C)=O)c54)OCO6)N3[C@@H](C#N)[C@H](C2)N1C` [Compound 3-R], the TGI in data set [1] is listed as 5.04E−10 Molar; in data set [2], 5.79E−10 Molar; in data set [3], 6.05E−10 Molar; in data set [4] it was more than 1.26E−07 Molar. The CC50 in data set [1] was 0.00125 µM; in data set [2], more than 0.126 µM; in data set [3], more than 0.126 µM; in data set [4] it was more than 0.126 µM. In addition, the GI50 was 0.403 µM in data set [2] and 0.00039 µM in data set [3].

As for `COc1ccc2[nH]c3c(c2c1)C[C@H](CN)N[C@]31CS[C@@H]2c3c(OC(C)=O)c(C)c4c(c3[C@H](COC1=O)N1[C@@H]2[C@H]2c3c(cc(C)c(OC)c3O)C[C@@H]([C@@H]1C#N)N2C)OCO4` [Compound 26-R], the GI50 is 0.00117 µM in data set [1], 0.00194 µM in data set [2], 0.000972 µM in data set [3] and 0.000729 µM in data set [4]. Further, the TGI in data set [1] was determined as 1.22E−09 Molar; in data set [2], 3.40E−09 Molar; in data set [3] it was 1.70E−09 Molar; in data set [4], 1.58E−09 Molar. The CC50 was 0.00146 µM in data set [1], more than 0.122 µM in data set [2], 0.00352 µM in data set [3] and more than 0.122 µM in data set [4].

Regarding `C=CCOC(=O)NC[C@@H]1Cc2c([nH]c3ccc(OC)cc23)[C@@]2(CS[C@@H]3c4c(OC(C)=O)c(C)c5c(c4[C@H](COC2=O)N2[C@@H]3[C@H]3c4c(cc(C)c(OC)c4O)C[C@@H]([C@@H]2C#N)N3C)OCO5)N1` [Compound 25-S], the concentration for 50% growth inhibition (GI50) in data set [1] came to 0.00584 µM; in data set [2], 0.00717 µM; in data set [3] it was 0.00684 µM; in data set [4] it was 0.00717 µM. Further, the TGI was determined as 9.04E−09 Molar in data set [1], 7.61E−09 Molar in data set [2], 9.26E−09 Molar in data set [3] and 7.72E−09 Molar in data set [4]. Also, the CC50 was 0.0154 µM in data set [1], more than 0.11 µM in data set [2], 0.0143 µM in data set [3] and more than 0.11 µM in data set [4].

In the case of `COc1ccc2[nH]c3c(c2c1)C[C@H](C(=O)O)N[C@]31CS[C@@H]2c3c(OC(C)=O)c(C)c4c(c3[C@H](COC1=O)N1[C@@H]2[C@H]2c3c(cc(C)c(OC)c3O)C[C@@H]([C@@H]1C#N)N2C)OCO4` [Compound 28-R, reference compound], the GI50 amounted to 0.0191 µM in data set [1], 0.167 µM in data set [2], 0.0215 µM in data set [3] and 0.031 µM in data set [4]. Further, the TGI in data set [1] came to 3.22E−08 Molar; in data set [2] it was 3.58E−07 Molar; in data set [3], 3.58E−08 Molar; in data set [4], 3.34E−08 Molar. Further, the CC50 is 0.0919 µM in data set [1], more than 1.19 µM in data set [2], 0.0668 µM in data set [3] and more than 1.19 µM in data set [4].

As for `COc1ccc2[nH]c3c(c2c1)C[C@@H](C(=O)O)N[C@]31CS[C@@H]2c3c(OC(C)=O)c(C)c4c(c3[C@H](COC1=O)N1[C@@H]2[C@H]2c3c(cc(C)c(OC)c3O)C[C@@H]([C@@H]1C#N)N2C)OCO4` [Compound 28-S, reference compound], the concentration for 50% growth inhibition (GI50) is 0.167 µM in data set [1], 0.489 µM in data set [2], 0.251 µM in data set [3] and 0.251 µM in data set [4]. Further, the TGI was 2.51E−07 Molar in data set [1], more than 1.19E−06 Molar in data set [2], 3.94E−07 Molar in data set [3] and 3.46E−07 Molar in data set [4]. Also, the CC50 in data set [1] was 0.394 µM; in data set [2], more than 1.19 µM; in data set [3], 0.692 µM; in data set [4], 0.633 µM.

On to `COc1ccc2[nH]c3c(c2c1)C[C@H](CO)N[C@]31CS[C@@H]2c3c(OC(C)=O)c(C)c4c(c3[C@H](COC1=O)N1[C@@H]2[C@H]2c3c(cc(C)c(OC)c3O)C[C@@H]([C@@H]1C#N)N2C)OCO4` [Compound 18-R], for which the TGI in data set [1] is recorded as 1.34E−09 Molar; in data set [2], 1.34E−09 Molar; in data set [3], 1.06E−09 Molar; in data set [4] it was 1.34E−09 Molar. In data set [1], the CC50 was 0.00146 µM. Moreover, growth in data set [3] was halved (GI50) at 0.00057 µM.

Take `COc1c(C)cc2c(c1O)[C@@H]1[C@@H]3[C@@H]4SC[C@]5(N[C@H](COC(C)=O)Cc6c5[nH]c5ccccc65)C(=O)OC[C@@H](c5c6c(c(C)c(OC(C)=O)c54)OCO6)N3[C@@H](C#N)[C@H](C2)N1C` [Compound 3a-S]: the GI50 in data set [1] came to 0.00287 µM; in data set [2], 0.00311 µM; in data set [3] it was 0.00215 µM; in data set [4] it was 0.00299 µM. For the same molecule, the TGI in data set [1] is listed as 3.59E−09 Molar; in data set [2], 3.23E−09 Molar; in data set [3] it was 3.59E−09 Molar; in data set [4] it was 3.23E−09 Molar. The CC50 in data set [1] was 0.0049 µM; in data set [2], more than 0.12 µM; in data set [3] it was 0.012 µM; in data set [4] it was more than 0.12 µM.

Take `COc1c(C)cc2c(c1O)[C@@H]1[C@@H]3[C@@H]4SC[C@]5(N[C@@H](C)Cc6c5[nH]c5ccccc65)C(=O)OC[C@@H](c5c6c(c(C)c(OC(C)=O)c54)OCO6)N3[C@@H](C#N)[C@H](C2)N1C` [B, reference compound]: the 50% growth inhibitory concentration (GI50) was determined as 0.009 µM in data set [1], 0.0206 µM in data set [2], 0.0193 µM in data set [3] and 0.00848 µM in data set [4]. Besides, the TGI amounted to 1.67E−08 Molar in data set [1], 2.19E−08 Molar in data set [2], 2.06E−08 Molar in data set [3] and 9.13E−09 Molar in data set [4]. Also, the CC50 in data set [1] is 0.0347 µM; in data set [2], more than 0.129 µM; in data set [3], 0.0231 µM; in data set [4], more than 0.129 µM.
